Target: Solute carrier family 2, facilitated glucose transporter member 4 (Homo sapiens) (UniProt P14672)
Test: GLUT4 glucose uptake inhibitors and substrates, dose response, cell-based, flow cytometry, glucose FRET sensor, HEK293 JumpIN TRex, wild type (AID 1794828)
Details: HEK293 JumpIN SLC2A4-OE

Solute carrier family 2, facilitated glucose transporter member 4 (Homo sapiens), sequence (P14672 whole entry, looked up): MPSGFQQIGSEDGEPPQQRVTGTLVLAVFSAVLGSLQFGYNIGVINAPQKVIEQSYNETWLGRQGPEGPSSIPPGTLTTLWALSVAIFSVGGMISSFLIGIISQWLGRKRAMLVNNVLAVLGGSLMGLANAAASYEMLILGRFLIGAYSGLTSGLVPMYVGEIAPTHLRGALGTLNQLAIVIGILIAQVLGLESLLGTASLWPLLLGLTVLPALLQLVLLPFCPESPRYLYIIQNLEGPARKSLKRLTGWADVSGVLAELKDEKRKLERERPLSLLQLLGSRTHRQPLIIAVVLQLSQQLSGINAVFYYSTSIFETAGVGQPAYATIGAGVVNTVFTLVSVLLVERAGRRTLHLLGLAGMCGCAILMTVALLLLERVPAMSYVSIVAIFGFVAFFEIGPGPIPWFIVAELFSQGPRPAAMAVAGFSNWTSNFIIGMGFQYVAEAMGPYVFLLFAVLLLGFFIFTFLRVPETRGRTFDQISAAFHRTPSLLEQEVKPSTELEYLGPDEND

For Cc1c(NC(=O)c2cc(C(N)=O)nc3cc(F)ccc23)c(C(F)(F)F)nn1Cc1ccc(C#N)cc1, which IC50 is on record?
The IC50 was 5.5 µM.

OC[C@H]1OC(O)[C@H](O)[C@@H](O)[C@@H]1O (stereo partly drawn) was tested. Which EC50 (substrate uptake, increase) did it give?
The EC50 (substrate uptake, increase) was 860 µM.

For O=C(Oc1cccc(F)c1OC(=O)c1cccc(O)c1)c1cccc(O)c1, which IC50 is on record?
The IC50 was 2.5 µM.

Reference: PubChem BioAssay AID1794828
